This passage reports T/C results from PubChem BioAssay AID330 (DTP/NCI, 2004).

For this experiment, the system named is P388 leukemia ip, CD2F1 mice, survival T/C. The experiment can be described thus: NCI In Vivo Anticancer Drug Screen. Data for tumor model P388 Leukemia (intraperitoneal) in CD2F1 (CDF1) mice. The note with it: endpoint: median survival time, higher = longer survival. In a few lines:
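Mice carrying the transplanted tumor received test compound or vehicle. Survival was recorded in each group, and the value is the treated-group measurement divided by that of the vehicle-treated control group.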

The mark [1] stands for this setting: dose: 100.0 mg/kg/injection, schedule: Q01DX009 (ip), vehicle: saline.
The mark [2] stands for this setting: dose: 200.0 mg/kg/injection, schedule: Q01DX009 (ip), vehicle: saline.

SMILES strings stand for the structures. Several values for one entry are separate records, joined by “and”; a condition that tells them apart may be missing. Identical values can stand only once. Toxic doses and inconclusive results are not listed.

As to `CCN(CCO)C(=O)Nc1ccc(Cl)cc1`, the T/C is, setting by setting: (dose: 60.0 mg/kg/injection, schedule: Q01DX005 (ip), vehicle: Klucel + Tween-80) 99 % of control; (dose: 120.0 mg/kg/injection, schedule: Q01DX005 (ip), vehicle: Klucel + Tween-80) 101 % of control; (dose: 240.0 mg/kg/injection, schedule: Q01DX005 (ip), vehicle: Klucel + Tween-80) 100 % of control.
For the compound `C/C(N=NC(=S)N1CCCCC1)=C1\C=CC=CN1O`, the T/C is, setting by setting: (dose: 50.0 mg/kg/injection, schedule: Q01DX005 (ip), vehicle: saline with Tween-80) 106 % of control; (dose: 100.0 mg/kg/injection, schedule: Q01DX005 (ip), vehicle: saline with Tween-80) 98 % of control; (dose: 200.0 mg/kg/injection, schedule: Q01DX005 (ip), vehicle: saline with Tween-80) 105 % of control.
`Cc1cc2cc(N)ccc2[se]1`: the T/C runs as follows: (dose: 50.0 mg/kg/injection, schedule: Q01DX009 (ip), vehicle: suspension in saline) 98 % of control; under setting [1], 94 % of control; (dose: 100.0 mg/kg/injection, schedule: Q01DX009 (ip), vehicle: suspension in saline) 108 % of control; under setting [2], 89 % of control; (dose: 200.0 mg/kg/injection, schedule: Q01DX009 (ip), vehicle: suspension in saline) 101 % of control.
Turning to `COc1ccc(C(=O)NC(c2ccccc2)c2cccs2)cc1` (stereo unspecified), the T/C is, setting by setting: (dose: 100.0 mg/kg/injection, schedule: Q01DX001 (ip), vehicle: Klucel (hydroxypropylcellulose) (HPC)) 113 % of control; (dose: 200.0 mg/kg/injection, schedule: Q01DX001 (ip), vehicle: Klucel (hydroxypropylcellulose) (HPC)) 104 % of control; (dose: 400.0 mg/kg/injection, schedule: Q01DX001 (ip), vehicle: Klucel (hydroxypropylcellulose) (HPC)) 109 % of control.
On to `Nc1ccc2c(=O)[nH]cnc2c1`, for which the T/C was 101 % of control (dose: 12.0 mg/kg/injection, schedule: Q01DX005 (ip), vehicle: Klucel (hydroxypropylcellulose) (HPC)); 108 % of control (dose: 25.0 mg/kg/injection, schedule: Q01DX005 (ip), vehicle: Klucel (hydroxypropylcellulose) (HPC)); 106 % of control and 116 % of control (dose: 50.0 mg/kg/injection, schedule: Q01DX005 (ip), vehicle: Klucel (hydroxypropylcellulose) (HPC)); 104 % of control (dose: 100.0 mg/kg/injection, schedule: Q01DX005 (ip), vehicle: Klucel (hydroxypropylcellulose) (HPC)).
Take `Cc1cc(C)c2c(c1N)C(=O)CCO2`: the T/C was 96 % of control (dose: 7.5 mg/kg/injection, schedule: Q01DX005 (ip), vehicle: saline with Tween-80); 100 % of control (dose: 15.0 mg/kg/injection, schedule: Q01DX005 (ip), vehicle: saline with Tween-80); 102 % of control (dose: 30.0 mg/kg/injection, schedule: Q01DX005 (ip), vehicle: saline with Tween-80).
For the compound `CC1=NN(c2ccccc2)C(=O)C1N=Nc1ccccc1S(=O)(=O)O` (stereo unspecified), the T/C (dose: 50.0 mg/kg/injection, schedule: Q01DX009 (ip), vehicle: saline) is 108 % of control; the T/C under setting [1] is 109 % of control; the T/C under setting [2] was 111 % of control.
In the case of `NOCc1ccccc1CON`, the T/C (dose: 37.5 mg/kg/injection, schedule: Q01DX009 (ip), vehicle: saline with Tween-80) was 86 % of control; the T/C (dose: 75.0 mg/kg/injection, schedule: Q01DX009 (ip), vehicle: saline with Tween-80) is 91 % of control; the T/C (dose: 150.0 mg/kg/injection, schedule: Q01DX009 (ip), vehicle: saline with Tween-80) is 104 % of control.
In the case of `BrCc1ccc2c(c1)CCC2`, the T/C (dose: 50.0 mg/kg/injection, schedule: Q01DX009 (ip), vehicle: distilled water + alcohol) was 106 % of control; the T/C (dose: 100.0 mg/kg/injection, schedule: Q01DX009 (ip), vehicle: distilled water + alcohol) is 113 % of control; the T/C (dose: 200.0 mg/kg/injection, schedule: Q01DX009 (ip), vehicle: distilled water + alcohol) was 97 % of control.
Take `COC(=O)C[C@](O)(CCCC(C)(C)O)C(=O)O[C@@H]1C(OC)=C[C@]23CCCN2CCc2cc4c(cc2[C@H]13)OCO4`: the T/C is, setting by setting: (dose: 0.06 mg/kg/injection, schedule: Q01DX005 (iv), vehicle: clinical formulation) 106 % of control; (dose: 0.06 mg/kg/injection, schedule: Q01DX005 (iv), vehicle: saline) 104 % of control; (dose: 0.12 mg/kg/injection, schedule: Q01DX005 (iv), vehicle: clinical formulation) 112 % of control; (dose: 0.12 mg/kg/injection, schedule: Q01DX005 (iv), vehicle: saline) 102 % of control; (dose: 0.12 mg/kg/injection, schedule: Q01DX009 (ip), vehicle: clinical formulation) 155 % of control; (dose: 0.12 mg/kg/injection, schedule: Q01DX009 (ip), vehicle: saline) 152 % of control. In addition, the T/C (dose: 0.25 mg/kg/injection, schedule: Q01DX005 (iv), vehicle: clinical formulation) was 121 % of control; the T/C (dose: 0.25 mg/kg/injection, schedule: Q01DX005 (iv), vehicle: saline) is 102 % of control; the T/C (dose: 0.25 mg/kg/injection, schedule: Q01DX009 (ip), vehicle: clinical formulation) is 166 % of control; the T/C (dose: 0.25 mg/kg/injection, schedule: Q01DX009 (ip), vehicle: saline) is 162 % of control; the T/C (dose: 0.5 mg/kg/injection, schedule: Q01DX005 (iv), vehicle: clinical formulation) was 160 % of control; the T/C (dose: 0.5 mg/kg/injection, schedule: Q01DX009 (ip), vehicle: clinical formulation) is 199 % of control. For the same compound, the T/C runs as follows: (dose: 0.5 mg/kg/injection, schedule: Q01DX009 (ip), vehicle: saline) 185 % of control; (dose: 0.58 mg/kg/injection, schedule: Q01DX009 (ip), vehicle: acid diluted with saline) 194 % of control; (dose: 0.75 mg/kg/injection, schedule: Q01DX009 (ip), vehicle: acid diluted with saline) 173 % of control and 180 % of control; (dose: 1.0 mg/kg/injection, schedule: Q01DX005 (iv), vehicle: clinical formulation) 194 % of control; (dose: 1.0 mg/kg/injection, schedule: Q01DX005 (iv), vehicle: saline) 168 % of control; (dose: 1.0 mg/kg/injection, schedule: Q01DX009 (ip), vehicle: clinical formulation) 252 % of control. In addition, the T/C by setting is: (dose: 1.65 mg/kg/injection, schedule: Q01DX009 (ip), vehicle: acid diluted with saline) 211 % of control and 229 % of control; (dose: 1.75 mg/kg/injection, schedule: Q01DX009 (ip), vehicle: acid diluted with saline) 229 % of control and 234 % of control and 93 % of control; (dose: 1.8 mg/kg/injection, schedule: Q04DX003 (ip), vehicle: saline + alcohol) 159 % of control; (dose: 1.8 mg/kg/injection, schedule: Q04DX003 (ip), vehicle: saline) 152 % of control; (dose: 2.0 mg/kg/injection, schedule: Q01DX005 (iv), vehicle: saline) 203 % of control; (dose: 2.25 mg/kg/injection, schedule: Q01DX009 (ip), vehicle: acid diluted with saline) 223 % of control (2×) and 93 % of control. Further, the T/C (dose: 2.5 mg/kg/injection, schedule: Q01DX009 (ip), vehicle: acid diluted with saline) is 106 % of control and 95 % of control; the T/C (dose: 3.0 mg/kg/injection, schedule: Q01DX009 (ip), vehicle: acid diluted with saline) was 66 % of control; the T/C (dose: 3.0 mg/kg/injection, schedule: Q04DX003 (ip), vehicle: saline + alcohol) is 99 % of control; the T/C (dose: 3.33 mg/kg/injection, schedule: Q04DX003 (ip), vehicle: saline) is 103 % of control.
For `N=C1SCc2ccc3ccccc3c21`, the T/C reads like this: (dose: 50.0 mg/kg/injection, schedule: Q01DX009 (ip), vehicle: saline with Tween-80) 100 % of control; (dose: 100.0 mg/kg/injection, schedule: Q01DX009 (ip), vehicle: saline with Tween-80) 124 % of control; (dose: 400.0 mg/kg/injection, schedule: Q01DX009 (ip), vehicle: saline with Tween-80) 97 % of control.
Turning to `COc1cc([N+](=O)[O-])cc2c1OC1(SC(C)(C)C(C)CN1C)C(C)=C2` (stereo unspecified), the T/C was 105 % of control (dose: 100.0 mg/kg/injection, schedule: Q04DX003 (ip), vehicle: saline with Tween-80); 100 % of control (dose: 200.0 mg/kg/injection, schedule: Q04DX003 (ip), vehicle: saline with Tween-80); 95 % of control (dose: 400.0 mg/kg/injection, schedule: Q04DX003 (ip), vehicle: saline with Tween-80).
Take `COC(=O)c1nc(N)nc(C(=O)OC)c1C(=O)c1cccnc1`: the T/C was 95 % of control (dose: 60.0 mg/kg/injection, schedule: Q01DX005 (ip), vehicle: Klucel (hydroxypropylcellulose) (HPC)) and 93 % of control (dose: 120.0 mg/kg/injection, schedule: Q01DX005 (ip), vehicle: Klucel (hydroxypropylcellulose) (HPC)).
